This is an account of results in patent US9540299B2, “MTOR-independent activator of TFEB for autophagy enhancement and uses thereof” (Hong Kong Baptist University, priority 2015, dated 2017).

Experiment [1] concerns the target T1, MTOR-TFEB-YWHA interaction (Homo sapiens, UniProt P19484).
T1 construct: expressed in transfected cells; host or cells: HeLa cells stably expressing 3×Flag-TFEB; MTOR and YWHA are endogenous
T1 sequence (P19484 1-476): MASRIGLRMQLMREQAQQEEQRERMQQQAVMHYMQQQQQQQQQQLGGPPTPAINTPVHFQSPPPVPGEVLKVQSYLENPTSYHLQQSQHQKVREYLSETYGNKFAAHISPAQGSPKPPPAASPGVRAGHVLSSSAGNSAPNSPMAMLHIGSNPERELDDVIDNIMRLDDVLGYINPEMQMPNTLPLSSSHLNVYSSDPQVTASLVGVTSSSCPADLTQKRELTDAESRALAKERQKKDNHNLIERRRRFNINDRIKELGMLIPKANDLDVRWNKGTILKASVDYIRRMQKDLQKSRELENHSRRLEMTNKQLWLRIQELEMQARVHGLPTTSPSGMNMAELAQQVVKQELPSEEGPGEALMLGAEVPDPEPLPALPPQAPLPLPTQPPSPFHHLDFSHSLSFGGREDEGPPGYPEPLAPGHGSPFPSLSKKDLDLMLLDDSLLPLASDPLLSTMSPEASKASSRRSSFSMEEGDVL
Put plainly: Co-immunoprecipitation of MTOR and YWHA with Flag-TFEB in Hela cells. The class given is cell-based. Conditions: Hela 3×Flag-TFEB cells, 1 μM, 12 h. As for the experimental part: Hela cells stably expressing 3×Flag-TFEB are treated with C1 (1 μM) for 12 h. Endogenous MTOR and YWHA are co-immunoprecipitated with Flag-TFEB. Western blots and levels of immunoprecipitated MTOR (FIG. 5A) and YWHA (FIG. 5B) normalized to their corresponding levels in whole cell lysates (WCL). Data are presented as the mean±SD from three independent experiments. *p<0.05 vs. the control. WB—western blot and IP—immunoprecipitation. Cells are lysed on ice in 1× Lysis Buffer (9803, Life Technologies) with complete protease inhibitor mixture (04693124001, Roche Applied Science). Animal tissues are homogenized in nine volumes of ice-cold PBS supplemented with protease inhibitors. Cytosolic and nuclear fractions are isolated using protocols similar to those described previously. Anti-Flag or TFEB antibody is added to the whole cell lysates and Dynabeads® Protein G (10003D, Life Technologies) is used for immunoprecipitation. Proteins are separated by 10-15% SDS-PAGE, transferred, and blotted with the antibodies described. The blots are then incubated with secondary antibodies or the Clean-Blot IP Detection Reagent (21230, Thermo Scientific) at room temperature for 1 h. The protein signals are detected by ECL kit (32106, Pierce) and quantified using ImageJ software. Hela cells stably expressing 3×Flag-TFEB are treated with C1 (1 μM) for 12 h. […]

Another experiment relates to Hela cells. Put plainly: Western blot of TFEB, LC3-II, LAMP1, CTSD in Hela cells. The class given is cell-based, human. The method, then: Various gene expressions in Hela cells (FIG. 7A) and SH-SY5Y cells (FIG. 7B) after treated with C1 (1 μM) for 12 h. mRNA transcript abundance is assessed by real-time PCR using specific primers for the indicated genes. Relative quantification (RQ) is presented as means±SD of three independent experiments. FIG. 7C is western blot showing the protein levels of autophagy marker (LC3-II), TFEB and lysosome markers (LAMP1, CTSD) in Hela and SH-SY5Y cells having treated with C1 (0.5, 1 μM) or sucrose (100 mM) for 12 h. The relative intensity of autophagy marker (LC3-II), TFEB and lysosome markers (LAMP1, CTSD) normalized to that of ACTB/β-actin in Hela cells (FIG. 7D) and SH-SY5Y cells (FIG. 7E). Data are presented as the mean±SD from three independent experiments. *p<0.05 vs. the control (0.1% DMSO). […] Autophagy-enhancing effect of C1 is TFEB-dependent. Data are presented as the mean±SD from three independent experiments. *p<0.05 vs. the control. N. S.=not significant.
N2a, Hela and Hela cells stably expressing 3×-Flag-TFEB are cultured in DMEM supplemented with 10% FBS. SH-SY5Y cells are cultured in DMEM/F12 supplemented with 10% FBS. For drug treatment, the full medium is replaced by fresh Opti-MEM I and then the compounds (in 0.1% DMSO) are added to the cells and incubated for 12 h. Inducible PC12 cells overexpressing SNCA (WT and A53T) (a kind gift from Prof. David C. Rubinsztein at Cambridge University) are grown in DMEM supplemented with 10% horse serum, 5% FBS, 50 μg/ml G418, and 150 μg/ml hygromycin B at 37° C., 10% CO2. Cells are treated with 2 μg/ml doxycycline (Dox) for 24 h to induce SNCA expression. The full medium is changed to Opti-MEM I containing the testing compounds for another 48 h. […]
Cells are lysed on ice in 1× Lysis Buffer (9803, Life Technologies) with complete protease inhibitor mixture (04693124001, Roche Applied Science). […] The protein signals are detected by ECL kit (32106, Pierce) and quantified using ImageJ software.
(In general: A western blot detects proteins with antibodies after separation by electrophoresis.)

The test system of another experiment is human P301S tau. Put plainly: Oral treatment of P301S tau transgenic mice: Tau species in brain. Conditions: immunostaining of brain slices. The class given is in vivo.

As for `COc1ccccc1/C=C/C(=O)/C=C/c1ccccc1OC` [C1, 1,5-bis(2-methoxyphenyl)penta-1,4-dien-3-one], in experiment [1], the “MTOR and YWHA coimmunoprecipitated with Flag-TFEB compared with control” value was “decreased”; the “levels of endogenous MTOR and YWHA” value is “does not affect”. Also, in the experiment with Hela cells (Hela cells, 0.5, 1 μM, 12 h), the “autophagy/lysosomal biogenesis (LC3-II, LAMP1, CTSD protein levels)” value was “activated” and the “protein levels of TFEB” value is given as “increased”. The “increase in LC3-II levels in cells transfected with TFEB siRNA” value with Hela cells (Hela cells, siTFEB 100 nM 72 h, then 1 μM 12 h) is recorded as “blocked”. Moreover, in the experiment with human P301S tau, the “AT8 and PHF1 positive cells in the hippocampus and cortex” value is given as “dramatically reduced”.
